Reference: publication PMC3210913 (Psychopharmacology, 2011)

Test system: serotonin 5-HT1A receptor
Test: in vivo PET displacement of [carbonyl-11C]WAY-100635
Design: species or system Macaca fascicularis
Conditions: 300 µg/kg i.v. cariprazine, raphe nuclei, ketamine/xylazine anaesthesia

Sequence of serotonin 5-HT1A receptor (UPI0032B04AFA 1-422): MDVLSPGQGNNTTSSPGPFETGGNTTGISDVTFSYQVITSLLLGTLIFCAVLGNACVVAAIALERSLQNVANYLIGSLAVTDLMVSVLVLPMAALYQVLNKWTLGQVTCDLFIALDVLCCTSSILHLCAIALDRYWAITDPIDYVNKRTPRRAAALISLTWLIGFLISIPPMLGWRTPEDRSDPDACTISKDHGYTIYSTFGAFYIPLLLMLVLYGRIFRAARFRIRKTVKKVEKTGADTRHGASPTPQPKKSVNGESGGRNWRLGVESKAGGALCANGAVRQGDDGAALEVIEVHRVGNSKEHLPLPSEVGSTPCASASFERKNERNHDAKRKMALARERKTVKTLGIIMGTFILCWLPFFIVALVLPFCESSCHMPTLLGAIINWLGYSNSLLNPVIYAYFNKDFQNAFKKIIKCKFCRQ

CN(C)C(=O)N[C@H]1CC[C@H](CCN2CCN(c3cccc(Cl)c3Cl)CC2)CC1 [cariprazine]
Receptor occupancy (%) / Cariprazine (μg/kg) / 300: 30%
